Earlier results in patent US10968484B2, “Methods of identifying responses to map kinase inhibition therapy” (The Broad Institute, Inc., priority 2013, dated 2021).
Read-outs that look alike come from different tables or passages of the source.

Test system: BRAF_V600-mutant melanomas (cell lines)
Conditions: read-out: PLX4720 IC50

For `CCCS(=O)(=O)Nc1ccc(F)c(C(=O)c2c[nH]c3ncc(Cl)cc23)c1F` [PLX4720], the IC50 (resistance class of BRAF_V600-mutant melanoma cell lines) is listed as ≥ 8 µM and the IC50 (sensitive class of BRAF_V600-mutant melanoma cell lines) is listed as < 1.6 µM.
